The source of these data is ChEMBL document CHEMBL1133908, “Novel 3-(2-adamantyl)pyrrolidines with potent activity against influenza A virus-identification of aminoadamantane derivatives bearing two pharmacophoric amine groups” (2001).

In brackets after ≈: the same amount, converted by molar mass.

Assay [1] has as its system MDCK. Put plainly: Minimum inhibitory concentration required to reduce influenza A H2N2 virus induced cytopathogenicity by 50% in madin-Darby canine kidney cells (MDCK). In kind it is functional. To be noted: Canis lupus familiaris. (In general: Cytopathic effects are the visible damage that an infection or toxin causes in cultured cells.)
Assay [2] relates to MDCK. Put plainly: Minimum inhibitory concentration required to reduce influenza A H3N2 (X31) virus induced cytopathogenicity by 50% in madin-Darby canine kidney cells (MDCK). In kind it is functional. To be noted: Canis lupus familiaris.
The test system of assay [3] is MDCK. Put plainly: Minimum cytotoxic concentration required to cause a microscopically detectable alteration of normal cell morphology in madin-Darby canine kidney cells (MDCK). It counts as functional, Canis lupus familiaris.

Take `CCCN1CCC(C2C3CC4CC(C3)CC2C4)C1` (stereo unspecified): the MIC50 against MDCK [1] and in the assay on MDCK [2] was above 28.2 µM each time. In addition, the MCC50 in the assay with MDCK [3] was determined as 140.9 µM.
As for `CN1CCC(C2C3CC4CC(C3)CC2C4)C1` (stereo unspecified), the MIC50 in the assay on MDCK [1] and in the assay with MDCK [2] was 18.8 µM (≈ 4.12 µg/mL) each time. In the assay on MDCK [3], the MCC50 was above 156.4 µM.
As to `CCN1CCC(C2C3CC4CC(C3)CC2C4)C1` (stereo unspecified), the MIC50 against MDCK [1] and against MDCK [2] was above 29.7 µM each time. This compound also showed an MCC50 in the assay with MDCK [3] of 148.2 µM.
In the case of `CCN(CC)CCN1CCC(C2C3CC4CC(C3)CC2C4)C1=O` (stereo unspecified), the MIC50 against MDCK [1] and in the assay with MDCK [2] was 11.1 µM (≈ 3.54 µg/mL) in each case. The same compound returned an MCC50 in the assay on MDCK [3] of 92 µM.
`CN(C)CCN1CCC(C2C3CC4CC(C3)CC2C4)C1=O` (stereo unspecified): the MIC50 against MDCK [1] and in the assay with MDCK [2] was 14.7 µM (≈ 4.27 µg/mL) each time. Moreover, the MCC50 with MDCK [3] worked out at 122.4 µM.
Take `C1CC(C2C3CC4CC(C3)CC2C4)CN1` (stereo unspecified): the MIC50 in the assay with MDCK [1] amounted to 0.6 µM (≈ 0.123 µg/mL); against MDCK [2], 5 µM (≈ 1.03 µg/mL). The same compound returned an MCC50 in the assay on MDCK [3] of 124.4 µM.
For `C1CCN(CCN2CCC(C3C4CC5CC(C4)CC3C5)C2)CC1` (stereo unspecified), in that order: 1.7 µM (≈ 0.538 µg/mL), 0.35 µM (≈ 0.111 µg/mL) and 14.6 µM.
For `CCN(CC)CCN1CCC(C2C3CC4CC(C3)CC2C4)C1` (stereo unspecified), in that order: 8.9 µM (≈ 2.71 µg/mL), above 14.9 µM and 74.5 µM.
As to `CCCCN1CCC(C2C3CC4CC(C3)CC2C4)C1` (stereo unspecified), the MIC50 in the assay with MDCK [1] and in the assay with MDCK [2] was above 26.9 µM in each case. This compound gave an MCC50 in the assay with MDCK [3] of 134.3 µM.
Take `CN(C)CCN1CCC(C2C3CC4CC(C3)CC2C4)C1` (stereo unspecified): the figures for the MIC50 against MDCK [1] and against MDCK [2] were 0.38 µM (≈ 0.105 µg/mL) and 9.4 µM (≈ 2.6 µg/mL), respectively. Moreover, in the assay with MDCK [3], the MCC50 was 78.7 µM.
Consider `NC12CC3CC(CC(C3)C1)C2` [AMANTADINE], for which the MIC50 in the assay on MDCK [1] was determined as 2.6 µM (≈ 0.393 µg/mL); with MDCK [2], 12.8 µM (≈ 1.94 µg/mL). The MCC50 in the assay with MDCK [3] was above 533.3 µM.
For `NC(=O)c1ncn([C@@H]2O[C@H](CO)[C@@H](O)[C@H]2O)n1` [RIBAVIRIN] the same measures were 615 µM (≈ 150 µg/mL), 123 µM (≈ 30 µg/mL) and above 1024.6 µM.
